This is an account of results in ChEMBL document CHEMBL1201862, “PubChem BioAssay data set” (2004).

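In this assay, cells in 96-well plates receive the compound at five concentrations for 48 hours. Endpoints are linearly interpolated between the surrounding concentrations. GI50 = concentration required for 50% inhibition of growth.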 Activity calls are given as the source filed them. Cut-off read from the data, not from the text of the source: active = GI50 up to about 1.1 µM and inactive = higher.

Test systems include KM12; LOX IMVI; K562; RXF 393; HOP-92; M14; UO-31; NCI/ADR-RES; MCF7; MOLT-4; CCRF-CEM; SN12C; U-251; 786-0; SF-539; HCT-116; OVCAR-3; A498; HCC 2998; ACHN.
What all share (experiment): NCI tumour cell line growth inhibition, 48 h

`Cn1c(=O)c2nc(CCCCc3nc4ccccc4[nH]3)[nH]c2n(C)c1=O`: the GI50 with KM12 was > 100 µM (inactive); in the test on LOX IMVI it was > 100 µM (inactive); in the test with K562, > 100 µM (inactive); in the test with RXF 393, > 100 µM (inactive); in the test with HOP-92, 21.4 µM (inactive); with M14, > 100 µM (inactive). Further, the GI50 is 35.4 µM (inactive) in the test on UO-31; > 100 µM (inactive) in the test on NCI/ADR-RES; > 100 µM (inactive) in the test with MCF7; > 100 µM (inactive) with MOLT-4; > 100 µM (inactive) in the test on CCRF-CEM; > 100 µM (inactive) in the test with SN12C. Further, the GI50 was > 100 µM (inactive) in the test on U-251; > 100 µM (inactive) with 786-0; 17 µM (inactive) in the test with SF-539; > 100 µM (inactive) in the test with HCT-116; > 100 µM (inactive) in the test on OVCAR-3; > 100 µM (inactive) with A498. Moreover, the GI50 with HCC 2998 and in the test with ACHN was > 100 µM (inactive) in each case.
For `CN(C)CCn1c(=O)c2ccc(NCCCN(C)CCCNc3ccc4c(=O)n(CCN(C)C)c(=O)n5c6ccc(O)cc6c(=O)c3c45)c3c(=O)c4cc(O)ccc4n(c1=O)c23`, the GI50 in the test on KM12 is < 0.01 µM (active); in the test with LOX IMVI it was < 0.01 µM (active); with K562 it was < 0.01 µM (active); in the test with RXF 393, < 0.0125 µM (active); in the test on HOP-92, < 0.0201 µM (active); in the test on M14 it was 0.147 µM (active). Moreover, the GI50 was 0.0107 µM (active) in the test with UO-31; 0.181 µM (active) in the test on NCI/ADR-RES; < 0.01 µM (active) in the test on MCF7; < 0.01 µM (active) in the test on MOLT-4; < 0.01 µM (active) with CCRF-CEM; < 0.01 µM (active) in the test with SN12C. Moreover, the GI50 was < 0.01 µM (active) in the test on U-251; < 0.01 µM (active) with 786-0; < 0.01 µM (active) with SF-539; < 0.01 µM (active) in the test with HCT-116; 0.059 µM (active) in the test with OVCAR-3; 0.0289 µM (active) in the test with A498. The GI50 in the test on HCC 2998 is < 0.0151 µM (active); in the test with ACHN, < 0.01 µM (active).
`O=C(CCl)Nc1ccc(C(=O)N/N=C/c2ccc(Cl)cc2)cc1`: the GI50 in the test on KM12 was 0.889 µM (active); in the test with LOX IMVI it was 1.48 µM (inactive); in the test with K562, 2.89 µM (inactive); in the test with RXF 393, 0.946 µM (active); in the test with HOP-92, 2 µM (inactive); in the test with M14, 6.41 µM (inactive). Moreover, the GI50 with UO-31 was 4.46 µM (inactive); with NCI/ADR-RES, 2.37 µM (inactive); with MCF7, 5.09 µM (inactive); in the test on MOLT-4, 1.9 µM (inactive); in the test on CCRF-CEM it was 1.82 µM (inactive); with SN12C, 2.84 µM (inactive). In addition, the GI50 is 1.78 µM (inactive) in the test with U-251; 1.58 µM (inactive) in the test on 786-0; 2.01 µM (inactive) in the test on SF-539; 1.8 µM (inactive) in the test with HCT-116; 1.84 µM (inactive) in the test with OVCAR-3; 2.21 µM (inactive) in the test with A498. Also, the GI50 with HCC 2998 is 9.33 µM (inactive); in the test with ACHN it was 2.59 µM (inactive).
For `Cc1cn(CCCCOC(=O)NC(CCCNC(=N)N)C(=O)O)c(=O)[nH]c1=O` (stereo not given), the GI50 with KM12, in the test on LOX IMVI, with K562, in the test with RXF 393, in the test on HOP-92 and with M14 was > 100 µM (inactive) each time. The GI50 with UO-31, in the test on NCI/ADR-RES, in the test with MCF7, with MOLT-4, in the test on CCRF-CEM and in the test with SN12C was > 100 µM (inactive) in each case. Further, the GI50 in the test on U-251, in the test with 786-0, in the test with SF-539, in the test with HCT-116, in the test on OVCAR-3 and in the test with A498 was > 100 µM (inactive) each time. For the same compound, the GI50 with HCC 2998 and in the test on ACHN was > 100 µM (inactive) throughout.
As for `CC(C)OC(=O)c1ccc(CCc2cc(O)c(Br)cc2O)cc1`, the GI50 with KM12 was 6.56 µM (inactive); with LOX IMVI, 8.04 µM (inactive); in the test on K562 it was 8.65 µM (inactive); in the test with RXF 393 it was 15 µM (inactive); in the test with HOP-92, 20.9 µM (inactive); in the test with M14 it was 15.6 µM (inactive). The GI50 in the test with UO-31 is 5.52 µM (inactive); with NCI/ADR-RES it was 9.2 µM (inactive); in the test with MCF7, 11.7 µM (inactive); in the test on MOLT-4, 7.94 µM (inactive); in the test on CCRF-CEM, 3.92 µM (inactive); in the test with SN12C, 13.4 µM (inactive). Also, the GI50 with U-251 was 7.48 µM (inactive); with 786-0 it was 12 µM (inactive); in the test on SF-539 it was 7.36 µM (inactive); in the test with HCT-116, 11.5 µM (inactive); in the test on OVCAR-3, 8.11 µM (inactive); with A498, 21 µM (inactive). Further, the GI50 with HCC 2998 was 16.1 µM (inactive); in the test with ACHN, 18 µM (inactive).
Turning to `Brc1cccc(/C=C/CN2CCN(CCOC(c3ccccc3)c3ccccc3)CC2)c1`, the GI50 with KM12 is 14.8 µM (inactive); in the test on LOX IMVI, 14.5 µM (inactive); in the test with K562 it was 7.69 µM (inactive); in the test with RXF 393, 11.6 µM (inactive); in the test on HOP-92, 6 µM (inactive); with M14, 13.2 µM (inactive). Further, the GI50 in the test on UO-31 was 13.1 µM (inactive); in the test on NCI/ADR-RES it was 14.7 µM (inactive); in the test with MCF7, 14.5 µM (inactive); with MOLT-4, 8.47 µM (inactive); in the test on CCRF-CEM, 11.1 µM (inactive); in the test with SN12C it was 15 µM (inactive). Moreover, the GI50 was 13.6 µM (inactive) with U-251; 15.7 µM (inactive) with 786-0; 15.7 µM (inactive) with SF-539; 13.7 µM (inactive) in the test with HCT-116; 15.4 µM (inactive) in the test on OVCAR-3; 17.5 µM (inactive) in the test with A498. Also, the GI50 in the test on HCC 2998 is 8.53 µM (inactive); with ACHN, 17.5 µM (inactive).
With `COC(=O)C1=C(OC(=O)/C(=C/c2ccc(Cl)cc2Cl)c2ccc(Cl)cc2Cl)C(C(=O)OC)[C@@]2(O)[C@@H](C(=O)OC)[C@H](C)C[C@@H]1[C@@H]2C(=O)OC` (stereo not given in full), the GI50 in the test on KM12 was > 100 µM (inactive); in the test on LOX IMVI, > 100 µM (inactive); in the test with K562, > 100 µM (inactive); in the test with RXF 393, 61.8 µM (inactive); with HOP-92, 22.9 µM (inactive); with M14 it was > 100 µM (inactive). Also, the GI50 is > 100 µM (inactive) in the test with UO-31; > 100 µM (inactive) in the test on NCI/ADR-RES; > 100 µM (inactive) in the test on MCF7; > 100 µM (inactive) in the test on MOLT-4; 88.5 µM (inactive) in the test on CCRF-CEM; > 100 µM (inactive) in the test with SN12C. Besides, the GI50 with U-251, in the test with 786-0, in the test on SF-539, with HCT-116, in the test with OVCAR-3 and in the test with A498 was > 100 µM (inactive) in each case. The GI50 in the test with HCC 2998 and in the test on ACHN was > 100 µM (inactive) throughout.
Regarding `C=CC1=C(C)c2cc3[nH]c(c4c5nc(cc6[nH]c(cc1n2)c(C)c6CC)C(C)=C5C(=O)[C@@H]4C(=O)OC)[C@@H](CCC(=O)O)[C@@H]3C`, the GI50 with KM12 was 4.83 µM (inactive); in the test with LOX IMVI, 6.22 µM (inactive); in the test on K562 it was 1.38 µM (inactive); with RXF 393 it was 1.29 µM (inactive); in the test with HOP-92 it was 1.63 µM (inactive); in the test on M14, 3.66 µM (inactive). Further, the GI50 is 2.33 µM (inactive) with UO-31; 9.02 µM (inactive) in the test on NCI/ADR-RES; 2.98 µM (inactive) in the test with MCF7; 1 µM (active) in the test with MOLT-4; 1.21 µM (inactive) in the test on CCRF-CEM; 5.45 µM (inactive) with SN12C. Further, the GI50 in the test on U-251 is 3.06 µM (inactive); with 786-0 it was 7.71 µM (inactive); with SF-539, 1.86 µM (inactive); in the test with HCT-116, 8.71 µM (inactive); in the test with OVCAR-3 it was 2.04 µM (inactive); with A498 it was 2.55 µM (inactive). In addition, the GI50 with HCC 2998 was 2 µM (inactive); with ACHN it was 2.27 µM (inactive).
As to `CCC[C@H](C)[C@H]1NC(=O)[C@@H](NC(=O)[C@@H](CC(C)C)N(C)C(=O)C2CCCN2C(=O)[C@H](C)O)[C@@H](C)OC(=O)[C@H](CC(C)C)N(C)C(=O)[C@@H]2CCCN2C(=O)[C@H](CC(C)C)NC(=O)[C@@H](C)C(=O)[C@H](C(C)C)OC(=O)C[C@@H]1O` (stereo not given in full), the GI50 with KM12, in the test with LOX IMVI, with K562, in the test on RXF 393, with HOP-92 and with M14 was < 0.0025 µM (active) each time. Moreover, the GI50 with UO-31 is 0.0107 µM (active); in the test on NCI/ADR-RES, 0.189 µM (active); in the test on MCF7, < 0.0025 µM (active); in the test on MOLT-4 it was < 0.0025 µM (active); in the test on CCRF-CEM it was < 0.0025 µM (active); in the test on SN12C it was < 0.0025 µM (active). For the same compound, the GI50 with U-251 was < 0.0025 µM (active); in the test on 786-0, < 0.0025 µM (active); in the test with SF-539, < 0.0025 µM (active); in the test on HCT-116, < 0.0025 µM (active); in the test on OVCAR-3, < 0.0025 µM (active); in the test with A498, 0.0115 µM (active). Moreover, the GI50 with HCC 2998 and in the test with ACHN was < 0.0025 µM (active) each time.
